Laboratory results: patent US9006394B2, “Peptide-presenting surfaces for long-term culture of pluripotent cells” (Wisconsin Alumni Research Foundation, priority 2008, dated 2015)
Ends that are not written are not given here.

Key:
Assay type in all cases: cell-based, human
hESCs [1] = experiment: Embryoid body differentiation after long-term culture, germ layer marker staining; settings: 3 months on surface, then 2 weeks EB suspension culture
From the text: Images were collected with a Hamamatsu (Bridgewater, N.J.) Digital Camera mounted onto an Olympus IX81 Microscope. Primary antibodies used were as follows: Oct-4 (1:400; R&D Systems; Minneapolis, Minn.), SSEA-4 (1:400; Santa Cruz Biotechnology; Santa Cruz, Calif.), β-III tubulin (1:3000; R&D Systems), nestin (1:3000), α-fetoprotein (1:250; Sigma), FoxA2 (1:100; R&D Systems), α-smooth muscle actin (1:1000; Sigma), and fatty acid binding protein 4 (1:250; R&D Systems). Cells were fixed with PBS containing 4% formaldehyde and 0.15% picric acid for 20 minutes at 37° C. and then permeabilized and blocked with PBS containing 0.1% Triton X-100 and 0.1% bovine serum albumin (BSA). All antibodies were incubated in blocking buffer overnight at 4° C., except for the antibodies against β-III tubulin, nestin and α-smooth muscle actin, which were incubated for 1 hour at room temperature. Secondary staining was performed with Alexa Fluor® 488- and/or 594-conjugated antibodies (1:1000; Invitrogen) diluted in blocking buffer and incubated for 1 hour at room temperature. Cells were counterstained with 4′,6-diamidino-2-phenylindole, dilactate (DAPI; Invitrogen). Image overlays were generated using ImageJ (ImageJ is a public domain Java image processing program available on the World Wide Web). Peptide array mosaics were generated using the AnalySIS Acquisition Software (Olympus).

hESCs [2] = experiment: Long-term (3 months) culture on defined surfaces, markers of pluripotency; settings: 3 months of continuous passaging
From the text: Preferably, one spots ATs onto an inert background to form self-assembling monolayers (SAMs). See, e.g., Derda et al., supra; Derda R, et al., “Solid-phase synthesis of alkanethiols for the preparation of self-assembled monolayers,” Langmuir 23:11164-11167 (2007); and Houseman B & Mrksich M, “Efficient solid-phase synthesis of peptide-substituted alkanethiols for the preparation of substrates that support the adhesion of cells,” J. Org. Chem. 63:7552-7555 (1998), each of which is incorporated herein by reference as if set forth in its entirety. For example, a background can be formed of perfluoro-AT, which can be both cytophobic (i.e., repel cells) and solvophobic (i.e., repel solvents). First, a gold-coated surface can be coated with a perfluoro-AT monolayer, either leaving areas (i.e., holes) in the monolayer for the elements of an array or creating areas in the monolayer for the elements of the array in a subsequent step. Then, ATs coupled to a peptide, such as an GBP as described herein, can be attached to the substrate in the holes to complete the monolayer and to present ligands for pluripotent cell attachment to the surface. Surface density of the GBPs can be controlled using mixed SAMs of peptide-ATs and non-adhesive glucamine-ATs. […]
Flow cytometry data was obtained using a FACSCalibur™ (BD Biosciences) and analyzed using FlowJo Software (Tree Star, Inc.; Ashland, Oreg.). […]

[3] = test system: hES cells (H9 and H13) and vector-free iPS cells (DF19-9); experiment: Cell growth over two passages (Cell Counting Kit-8)
Description: hESCs (H9) were cultured on Matrigel, vitronectin, polylysine, […] (SEQ ID NO: 1), or KGRGDS (SEQ ID NO: 5) over two passages in mTeSR media supplemented with 5 μm ROCK inhibitor. Cell counts were calculated at each time point using Cell Counting Kit-8 (Dojindo Molecular Technologies, Inc., Rockville, Md.).

mesoderm derivatives: staining for fatty acid binding protein 4 and α-smooth muscle actin (hESCs [1]): stained positive
Sequence: GKKQRFRHRNRKG (not fully specified (C-terminus); listed as Homo sapiens)
ectoderm derivatives: staining for β-III tubulin and nestin (hESCs [1]): stained positive
endoderm derivatives: staining for α-fetoprotein and FoxA2 (hESCs [1]): stained positive
markers of pluripotency after 3 months of culture (hESCs [2]): maintained high levels of markers of pluripotency
markers of pluripotency after 3 months of culture (hESCs [2]; listed as SEQ ID NO:1): maintained at high levels
plating efficiency after 24 hours ([3]; 24 hours): equivalent
cell numbers after each passage ([3]; two passages, mTeSR with ROCK inhibitor): Increased cell numbers
